Data: patent US20240132484A1, “BROAD SPECTRUM ANTIVIRAL COMPOUNDS TARGETING THE SKI COMPLEX” (priority 2020, published 2024)
“And” between values parts separate entries of the source, which are not always exact repeats. Equal entries are not always repeated. Where two headings read alike, the source gives them in different places.

Columns and labels:
cells (nuclei count) = conditions: for Toxicity Data: Average, Mean: average of Exp 1-3 (SMW475, SMW477, SMW478), n 9; for Relative cell count to DMSO controls, Average 1 μM / Relative cell count to DMSO controls, Average 5 μM / Relative cell count to DMSO controls, Average 10 μM / Relative cell count to DMSO controls, Average 25 μM / Relative cell count to DMSO controls, Average 50 μM: toxicity data, 100=DMSO control; for Relative cell count to DMSO controls, Average (for correlation analysis): average value over the 5 tested concentrations (1 to 50 uM)
SARS2 = assay type: cell-based, SARS-CoV-2; conditions: for Infection Data: Percentage Infection Relative to Appropriate DMSO Control: avg background subtraction, replicate wells; for Infection Data: Average, Mean: average of Exp 1-3 (SMW475, SMW477, SMW478), n 9; for Percentage Inhibition Average 1 μM / Screening data (Relative infection to DMSO controls) Average 1 μM: SARS2, 1 μM; for Screening data (Relative infection to DMSO controls) Average 1 μM / Screening data (Relative infection to DMSO controls) Average 5 μM / Screening data (Relative infection to DMSO controls) Average 10 μM / Screening data (Relative infection to DMSO controls) Average 25 μM / Screening data (Relative infection to DMSO controls) Average 50 μM / Average (relative infection to DMSO over the 5 tested concentrations): 100=DMSO control; for Percentage Inhibition Average 5 μM / Screening data (Relative infection to DMSO controls) Average 5 μM: SARS2, 5 μM; for Percentage Inhibition Average 10 μM / Screening data (Relative infection to DMSO controls) Average 10 μM: SARS2, 10 μM; for Percentage Inhibition Average 25 μM / Screening data (Relative infection to DMSO controls) Average 25 μM: SARS2, 25 μM; for Percentage Inhibition Average 50 μM / Screening data (Relative infection to DMSO controls) Average 50 μM: SARS2, 50 μM; for Average (relative infection to DMSO over the 5 tested concentrations): SARS2, average over 1 to 50 uM

Cc1csc(CN(CCN(C)C)Cc2ccco2)c1 [SILCS17]
Toxicity Data: Average, Mean (cells (nuclei count); 1 uM): 96.29%
Relative cell count to DMSO controls, Average 1 μM (cells (nuclei count)): 96.29
Toxicity Data: Average, Mean (cells (nuclei count); 5 uM): 89.17%
Relative cell count to DMSO controls, Average 5 μM (cells (nuclei count)): 89.17
Toxicity Data: Average, Mean (cells (nuclei count); 10 uM): 88.87%
Relative cell count to DMSO controls, Average 10 μM (cells (nuclei count)): 88.87
Toxicity Data: Average, Mean (cells (nuclei count); 25 uM): 75.47%
Relative cell count to DMSO controls, Average 25 μM (cells (nuclei count)): 75.47
Toxicity Data: Average, Mean (cells (nuclei count); 50 uM): 53.52%
Relative cell count to DMSO controls, Average 50 μM (cells (nuclei count)): 53.52
Relative cell count to DMSO controls, Average (for correlation analysis) (cells (nuclei count)): 80.66
Infection Data: Percentage Infection Relative to Appropriate DMSO Control (SARS2; 1 uM, Exp 1 (SMW475)): 78.55% and 85.49% and 89.26%
Infection Data: Percentage Infection Relative to Appropriate DMSO Control (SARS2; 1 uM, Exp 2 (SMW477)): 101.46% and 156.03% and 155.63%
Infection Data: Percentage Infection Relative to Appropriate DMSO Control (SARS2; 1 uM, Exp 3 (SMW478)): 90.81% and 93.25% and 105.34%
Infection Data: Average, Mean (SARS2; 1 uM): 106.20%
Infection Data: Percentage Infection Relative to Appropriate DMSO Control (SARS2; 5 uM, Exp 1 (SMW475)): 86.61% and 84.44% and 77.45%
Infection Data: Percentage Infection Relative to Appropriate DMSO Control (SARS2; 5 uM, Exp 2 (SMW477)): 142.87% and 172.05% and 157.06%
Infection Data: Percentage Infection Relative to Appropriate DMSO Control (SARS2; 5 uM, Exp 3 (SMW478)): 97.85% and 101.86% and 101.30%
Infection Data: Average, Mean (SARS2; 5 uM): 113.50%
Infection Data: Percentage Infection Relative to Appropriate DMSO Control (SARS2; 10 uM, Exp 1 (SMW475)): 75.56% and 86.80% and 108.19%
Infection Data: Percentage Infection Relative to Appropriate DMSO Control (SARS2; 10 uM, Exp 2 (SMW477)): 130.54% and 160.59% and 172.84%
Infection Data: Percentage Infection Relative to Appropriate DMSO Control (SARS2; 10 uM, Exp 3 (SMW478)): 90.38% and 97.98% and 103.28%
Infection Data: Average, Mean (SARS2; 10 uM): 114.02%
Infection Data: Percentage Infection Relative to Appropriate DMSO Control (SARS2; 25 uM, Exp 1 (SMW475)): 41.54% and 68.32% and 68.68%
Infection Data: Percentage Infection Relative to Appropriate DMSO Control (SARS2; 25 uM, Exp 2 (SMW477)): 38.35% and 67.19% and 82.12%
Infection Data: Percentage Infection Relative to Appropriate DMSO Control (SARS2; 25 uM, Exp 3 (SMW478)): 68.44% and 109.27% and 278.92%
Infection Data: Average, Mean (SARS2; 25 uM): 91.43%
Infection Data: Percentage Infection Relative to Appropriate DMSO Control (SARS2; 50 uM, Exp 1 (SMW475)): 15.74% and 49.90% and 30.92%
Infection Data: Percentage Infection Relative to Appropriate DMSO Control (SARS2; 50 uM, Exp 2 (SMW477)): 11.74% and 25.42% and 30.96%
Infection Data: Percentage Infection Relative to Appropriate DMSO Control (SARS2; 50 uM, Exp 3 (SMW478)): 20.44% and 62.60% and 81.13%
Infection Data: Average, Mean (SARS2; 50 uM): 36.54%
Percentage Inhibition Average 1 μM (SARS2): −6.20%
Screening data (Relative infection to DMSO controls) Average 1 μM (SARS2): 106.20
Percentage Inhibition Average 5 μM (SARS2): −13.50%
Screening data (Relative infection to DMSO controls) Average 5 μM (SARS2): 113.50
Percentage Inhibition Average 10 μM (SARS2): −14.02%
Screening data (Relative infection to DMSO controls) Average 10 μM (SARS2): 114.02
Percentage Inhibition Average 25 μM (SARS2): 8.57%
Screening data (Relative infection to DMSO controls) Average 25 μM (SARS2): 91.43
Percentage Inhibition Average 50 μM (SARS2): 63.46%
Screening data (Relative infection to DMSO controls) Average 50 μM (SARS2): 36.54
Average (relative infection to DMSO over the 5 tested concentrations) (SARS2): 92.34

CN(C)CCN(Cc1ccsc1)Cc1cccc(-c2ccsc2)c1 [SILCS20]
Toxicity Data: Average, Mean (cells (nuclei count); 1 uM): 96.85%
Relative cell count to DMSO controls, Average 1 μM (cells (nuclei count)): 96.85
Toxicity Data: Average, Mean (cells (nuclei count); 5 uM): 116.85%
Relative cell count to DMSO controls, Average 5 μM (cells (nuclei count)): 116.85
Toxicity Data: Average, Mean (cells (nuclei count); 10 uM): 138.88%
Relative cell count to DMSO controls, Average 10 μM (cells (nuclei count)): 138.88
Toxicity Data: Average, Mean (cells (nuclei count); 25 uM): 78.06%
Relative cell count to DMSO controls, Average 25 μM (cells (nuclei count)): 78.06
Toxicity Data: Average, Mean (cells (nuclei count); 50 uM): 7.37%
Relative cell count to DMSO controls, Average 50 μM (cells (nuclei count)): 7.37
Relative cell count to DMSO controls, Average (for correlation analysis) (cells (nuclei count)): 87.60
Infection Data: Percentage Infection Relative to Appropriate DMSO Control (SARS2; 1 uM, Exp 1 (SMW475)): 104.96% and 108.84% and 98.09%
Infection Data: Percentage Infection Relative to Appropriate DMSO Control (SARS2; 1 uM, Exp 2 (SMW477)): 151.25% and 151.34% and 136.14%
Infection Data: Percentage Infection Relative to Appropriate DMSO Control (SARS2; 1 uM, Exp 3 (SMW478)): 92.92% and 94.78% and 98.52%
Infection Data: Average, Mean (SARS2; 1 uM): 115.20%
Infection Data: Percentage Infection Relative to Appropriate DMSO Control (SARS2; 5 uM, Exp 1 (SMW475)): 71.77% and 48.90% and 69.38%
Infection Data: Percentage Infection Relative to Appropriate DMSO Control (SARS2; 5 uM, Exp 2 (SMW477)): 133.79% and 116.24% and 114.33%
Infection Data: Percentage Infection Relative to Appropriate DMSO Control (SARS2; 5 uM, Exp 3 (SMW478)): 62.84% and 53.65% and 64.98%
Infection Data: Average, Mean (SARS2; 5 uM): 81.76%
Infection Data: Percentage Infection Relative to Appropriate DMSO Control (SARS2; 10 uM, Exp 1 (SMW475)): 45.14% and 27.86% and 26.38%
Infection Data: Percentage Infection Relative to Appropriate DMSO Control (SARS2; 10 uM, Exp 2 (SMW477)): 76.01% and 46.79% and 30.46%
Infection Data: Percentage Infection Relative to Appropriate DMSO Control (SARS2; 10 uM, Exp 3 (SMW478)): 30.07% and 13.27% and 56.68%
Infection Data: Average, Mean (SARS2; 10 uM): 39.18%
Infection Data: Percentage Infection Relative to Appropriate DMSO Control (SARS2; 25 uM, Exp 1 (SMW475)): 13.25% and 8.47% and 6.46%
Infection Data: Percentage Infection Relative to Appropriate DMSO Control (SARS2; 25 uM, Exp 2 (SMW477)): 9.75% and 7.72% and 7.01%
Infection Data: Percentage Infection Relative to Appropriate DMSO Control (SARS2; 25 uM, Exp 3 (SMW478)): 6.76% and 9.52% and 8.68%
Infection Data: Average, Mean (SARS2; 25 uM): 8.63%
Infection Data: Percentage Infection Relative to Appropriate DMSO Control (SARS2; 50 uM, Exp 1 (SMW475)): −0.47% and 0.47% and 1.44%
Infection Data: Percentage Infection Relative to Appropriate DMSO Control (SARS2; 50 uM, Exp 2 (SMW477)): −0.57% and −0.19% and −1.43%
Infection Data: Percentage Infection Relative to Appropriate DMSO Control (SARS2; 50 uM, Exp 3 (SMW478)): 125.56% and 159.57% and 149.88%
Infection Data: Average, Mean (SARS2; 50 uM): 48.15%
Percentage Inhibition Average 1 μM (SARS2): −15.20%
Screening data (Relative infection to DMSO controls) Average 1 μM (SARS2): 115.20
Percentage Inhibition Average 5 μM (SARS2): 18.24%
Screening data (Relative infection to DMSO controls) Average 5 μM (SARS2): 81.76
Percentage Inhibition Average 10 μM (SARS2): 60.82%
Screening data (Relative infection to DMSO controls) Average 10 μM (SARS2): 39.18
Percentage Inhibition Average 25 μM (SARS2): 91.37%
Screening data (Relative infection to DMSO controls) Average 25 μM (SARS2): 8.63
Percentage Inhibition Average 50 μM (SARS2): 51.85%
Screening data (Relative infection to DMSO controls) Average 50 μM (SARS2): 48.15
Average (relative infection to DMSO over the 5 tested concentrations) (SARS2): 58.58
